Assay results published in the supplement of paper PMC5579334.
± gives the standard deviation of the averaged measurements.

Assays:
ST8814 [1] = assay: drug sensitivity score (DSS, CellTiter-Glo viability, 72 h) (DSS (dimensionless)); higher = more sensitive; extreme values may be limits of the assay
Method in brief: (§1)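 For this screen, 384-well plates were preprinted with each compound at five concentrations in 10-fold steps and seeded with MPNST cell lines or primary human Schwann cells at 750–1000 cells per well. Incubation lasted 72 h at 37 °C, 5% CO2, and CellTiter-Glo ATP luminescence, scaled between vehicle and positive-control wells and averaged over duplicates where available, served as viability. Logistic fits with four parameters were applied. Relative IC50 (censored at the top concentration) and drug sensitivity score derive from these fits, and percent inhibition is at the top concentration.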

[2] = system: HSC2 (primary human Schwann cells); assay: as above
Method in brief: as §1

S1507-2 [3] = assay: as above
Method in brief: as §1

STS26T [4] = assay: as above
Method in brief: as §1

S462 [5] = assay: as above
Method in brief: as §1

[6] = system: HSC1 (primary human Schwann cells); assay: as above
Method in brief: as §1

ST8814 [7] = assay: drug sensitivity score (DSS, CellTox-Green cytotoxicity, 72 h) (DSS (dimensionless)); higher = more cytotoxic; extreme values may be limits of the assay
Method in brief: (§2)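 MPNST cell lines and primary human Schwann cells were grown for 72 h at 37 °C in 384-well plates containing five 10-fold compound dilutions. CellTox-Green, added before seeding at a final 1:1000 dilution, gave fluorescence from DNA released by disrupted cells, and signals were scaled to vehicle and positive-control wells. Curves were fitted with a four-parameter logistic model. Drug sensitivity score and relative IC50 come from these fits, with IC50 censored at the top concentration.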

[8] = system: HSC2 (primary human Schwann cells); assay: as above
Method in brief: as §2

S1507-2 [9] = assay: as above
Method in brief: as §2

STS26T [10] = assay: as above
Method in brief: as §2

[11] = system: HSC1 (primary human Schwann cells); assay: as above
Method in brief: as §2

ST8814 [12] = assay: % inhibition of CellTiter-Glo viability at highest tested concentration (72 h), relative to DMSO and benzethonium chloride controls; higher = more inhibition
Method in brief: as §1

[13] = system: HSC2 (primary human Schwann cells); assay: as above
Method in brief: as §1

S1507-2 [14] = assay: as above
Method in brief: as §1

STS26T [15] = assay: as above
Method in brief: as §1

S462 [16] = assay: as above
Method in brief: as §1

[17] = system: HSC1 (primary human Schwann cells); assay: as above
Method in brief: as §1

Structure (SMILES) | drug sensitivity score (ST8814 [1]) | drug sensitivity score [2] | drug sensitivity score (S1507-2 [3]) | drug sensitivity score (STS26T [4]) | drug sensitivity score (S462 [5]) | drug sensitivity score [6] | drug sensitivity score (ST8814 [7]) | drug sensitivity score [8] | drug sensitivity score (S1507-2 [9]) | drug sensitivity score (STS26T [10]) | drug sensitivity score [11] | % inhibition (ST8814 [12]) [%] | % inhibition [13] [%] | % inhibition (S1507-2 [14]) [%] | % inhibition (STS26T [15]) [%] | % inhibition (S462 [16]) [%] | % inhibition [17] [%]
N[C@@H](Cc1ccc(N(CCCl)CCCl)cc1)C(=O)O [Melphalan aq] (max concentration tested 12500 nM) | 0 | 0 | 0 | 0 | 0 | 0.445 | 0 | 0 | 0 | 0 | 0 | 3.22 | 6.78 | 6.15 ± 8.2 | 2.1 | 5.6 ± 3 | 18.7
CCN(CC)CCCC(C)Nc1ccnc2cc(Cl)ccc12 (stereo not drawn) [Chloroquine aq] (max concentration tested 100000 nM) | 17.4 | 9.45 | 20.19 ± 0.053 | 14.5 | 13 ± 1.7 | 9.99 | 18.6 | 8.02 | 18.3 ± 0.29 | 15.1 | 9.24 | 96.1 | 94.5 | 95.13 ± 0.85 | 96.2 | 95.68 ± 0.34 | 94.7
Oc1ncc(N(CCCl)CCCl)c(O)n1 [Uracil mustard] (max concentration tested 10000 nM) | 0 | 0 | 0 | 0 | 0 | 0 | 0 | 0 | 0 | 0 | 0 | 10.8 | 5.29 | -1.65 ± 8.9 | 1.52 | -1.32 ± 0.75 | 5.98
CC(=O)O[C@]1(C(C)=O)CC[C@H]2[C@@H]3C=C(C)C4=CC(=O)CC[C@]4(C)[C@H]3CC[C@@]21C [Megestrol] (max concentration tested 10000 nM) | 0 | 0 | 0 | 0 | 0 | 0 | 0 | 0 | 0 | 0 | 0 | 4.75 | 8.15 | -2.04 ± 5.3 | 1.5 | 2.52 ± 6.2 | 9.41
Cc1c(CN2CCN(C(=O)[C@H](C)O)CC2)sc2c(N3CCOCC3)nc(-c3cnc(N)nc3)nc12 [GDC-0980] (max concentration tested 10000 nM) | 9.92 | 12.5 | 12.2 ± 0.97 | 12.5 | 10.5 ± 0.55 | 11.8 | 1.59 | 0 | 0.544 ± 0.76 | 0 | 0 | 90 | 80.9 | 79.39 ± 0.55 | 83.4 | 76.6 ± 3.3 | 82.8
CCCCC/C=C/C=C1/C(=O)C=C[C@@H]1C/C=C\CCCC(=O)O [15D-PGJ2] (max concentration tested 800 nM) | 0 | 0 | 0.113 ± 0.16 | 0 | 0 | 0 | 0 | 0 | 0 | 0 | 0 | -9.15 | 0.683 | 4.46 ± 11 | -0.85 | 0.683 ± 8.3 | 2.13
Cc1sc2c(c1C)C(c1ccc(Cl)cc1)=N[C@H](CC(=O)OC(C)(C)C)c1nnc(C)n1-2 [(-)JQ1] (max concentration tested 10000 nM) | 0.724 | 0.217 | 0.382 ± 0.54 | 0.598 | 0.987 ± 0.67 | 0.0114 | 0 | 0 | 0 | 0 | 0 | 20 | 15.6 | 12.5 ± 8.2 | 15.6 | 21.6 ± 8.9 | 11
CC(=O)N(O)CCCCCNC(=O)CCC(=O)N(O)CCCCCNC(=O)CCC(=O)N(O)CCCCCN [Deferoxamine aq] (max concentration tested 10000 nM) | 9.08 | 7.69 | 6.96 ± 1 | 5.09 | 6.82 ± 1.4 | 5.55 | 3.55 | 0 | 0.026 ± 0.037 | 0 | 0 | 88.2 | 64.9 | 61 ± 2.2 | 52.3 | 74.6 ± 9.3 | 60.6
CC[C@@]1(O)C(=O)OCc2c1cc1n(c2=O)Cc2cc3ccccc3nc2-1 [Camptotechin] (max concentration tested 5000 nM) | 26.9 | 23.8 | 19.2 ± 0.92 | 22 | 26.995 ± 0.022 | 22.7 | 30.9 | 17.7 | 10.95 ± 0.027 | 13.2 | 20.8 | 100 | 102 | 100 ± 0.18 | 102 | 103.58 ± 0.083 | 101
CC1(C)CCC(CN2CCN(c3ccc(C(=O)NS(=O)(=O)c4ccc(NCC5CCOCC5)c([N+](=O)[O-])c4)c(Oc4cnc5[nH]ccc5c4)c3)CC2)=C(c2ccc(Cl)cc2)C1 [ABT-199] (max concentration tested 10000 nM) | 0.111 | 0.781 | 0 | 0 | 0.138 ± 0.2 | 0.0759 | 0.467 | 0 | 0.226 ± 0.32 | 0 | 0 | 15.5 | 23.8 | 8.98 ± 1.1 | 3.69 | 7.02 ± 15 | 14.4
Cn1cc(C[C@@H](N)C(=O)O)c2ccccc21 [1-methyl-D-tryptophan aq] (max concentration tested 5000 nM) | 0 | 0 | 0 | 0 | 0 | 0 | 0 | 0.888 | 0.475 ± 0.58 | 0.0551 | 0 | -2.14 | 1.85 | 0.132 ± 6.3 | -5.75 | 0.824 ± 5.1 | 4.52
NC(=O)c1cccc2cn(-c3ccc(C4CCCNC4)cc3)nc12 (stereo not drawn) [MK-4827] (max concentration tested 10000 nM) | 8.12 | 1.47 | 5.09 ± 0.48 | 6.01 | 8.55 ± 0.22 | 2.86 | 4.56 | 0 | 0.763 ± 1.1 | 0.673 | 0 | 89.5 | 23.4 | 57.5 ± 6.1 | 67.6 | 86.1 ± 3 | 40
Nc1cccc2c1CN(C1CCC(=O)NC1=O)C2=O (stereo not drawn) [Lenalidomide] (max concentration tested 10000 nM) | 0 | 0.0019 | 1.35 ± 1.9 | 0 | 0 | 0.47 | 0 | 2.65 | 0 | 0 | 0 | 3.01 | 11 | 10.8 ± 9.4 | 0.527 | 2.04 ± 9.8 | 9.28
Cc1ccc([N+](=O)[O-])cc1S(=O)(=O)N(C)/N=C/c1cnc2ccc(Br)cn12 [PIK-75] (max concentration tested 10000 nM) | 17.7 | 21.1 | 17.9 ± 1.9 | 22.3 | 21.2 ± 0.91 | 19.7 | 5.5 | 9.74 | 8.99 ± 6.5 | 14.6 | 7.46 | 89.1 | 95.4 | 97.021 ± 0.018 | 102 | 101.9 ± 0.78 | 91.1
CCCCCCCCCCCCCCCCCCOP(=O)([O-])OC1CC[N+](C)(C)CC1 [Perifosine aq/PBS] (max concentration tested 2500 nM) | 1.66 | 0 | 0 | 1.96 | 0.0036 ± 0.0051 | 0 | 0.404 | 0 | 0 | 0.96 | 0 | 23.6 | 7.97 | 1.67 ± 4.5 | 32.7 | 9.85 ± 1.6 | 9.06
Cc1c(C(=O)Nc2ccc(N3C[C@@H](C)O[C@@H](C)C3)nc2)cccc1-c1ccc(OC(F)(F)F)cc1 [Erismodegib] (max concentration tested 10000 nM) | 0 | 0 | 0.871 ± 1.2 | 0.451 | 0 | 0 | 0 | 4.95 | 14.8 ± 20 | 0 | 1.48 | 1.35 | 8.65 | 9.49 ± 1.4 | 16.9 | 13.2 ± 2.2 | 9.09
O=C(O)C1(C(=O)O)CCC1.[NH2-].[NH2-].[Pt+2] [Carboplatin aq] (max concentration tested 100000 nM) | 6.09 | 8.82 | 5.78 ± 1.4 | 6.61 | 8.728 ± 0.04 | 8.01 | 6.79 | 7.86 | 2.71 ± 1.2 | 4.47 | 6.3 | 87.5 | 93.2 | 73.8 ± 1.3 | 81.2 | 98.3 ± 1 | 85.9
Cn1cnc2c(F)c(Nc3ccc(Br)cc3F)c(C(=O)NOCCO)cc21 [MEK-162] (max concentration tested 1000 nM) | 1.66 | 0 | 1.31 ± 1.3 | 2.04 | 2.73 ± 0.038 | 0.0621 | 0 | 0 | 0 | 0 | 0 | 23.8 | -2.17 | 19.9 ± 8.2 | 24.5 | 29.8 ± 0.71 | 15.1
COc1ncc(-c2ccc3nccc(-c4ccnnc4)c3c2)cc1NS(=O)(=O)c1ccc(F)cc1F (max concentration tested 1000 nM) | 12.8 | 15.8 | 14 ± 0.98 | 16.6 | 10.1 ± 1.8 | 16.1 | 4 | 0 | 0.225 ± 0.23 | 0.0475 | 0 | 90 | 84.1 | 72.9 ± 5.3 | 83.4 | 75.23 ± 0.42 | 84.4
